We go through five molecules from patent US7589185B2, “Nucleotide sequences and protein(s) encoded by such nucleotides for modulation of apoptosis” (Universita' degli Studi di Catanzaro “Magna Graecia”, priority 2001, dated 2009).

One data set concerns Air protein. Kind of data set: Intracellular expression of Air protein in primary B-CLL cells, immunofluorescence flow cytometry. The class given is cell-based, human. An excerpt: Presence of the Protein in primary ex vivo cells—We investigated whether our protein was present in primary ex vivo cells. (Procedures and conditions for isolation and culturing of primary cells are described in ref. 8-10). To this purpose, we first analysed three samples of B chronic lymphocytic leukemia (B-CLL) cells, since these cells can be considered a primary counterpart of the cell line that we initially studied. To detect the protein, we perform intracellular immuno-fluorescence experiments. 1−2×10^6 cells were fixed and permeabilised with 250 microl of Cytofix/Cytoperm (Pharmingen) solution, then incubated with the specific anti-Air rabbit polyclonal or a control rabbit antibody, followed by washing with Perm/Wash (Pharmingen) and a second incubation with fluorescein isothiocyanate (FITC)-conjugated goat anti-rabbit antibody. Then the cells were analysed with a FACScan (Becton Dickinson) flow cytometer. These experiments allowed to detect the presence of the protein in the three analysed B-CLL samples (FIGS. 7, 8 and 9).
FIG. 7—Intracellular expression of Air protein in cells from a patient affected by B-CLL. 2×10^6/ml cells obtained from patient's peripheral blood by centrifugation through Ficoll-Hypaque were incubated 24 h at 37° C. in a 5% CO2 atmosphere in the absence or presence of 2 mM DEM, fixed and permeabilised with 250 microl of Cytofix/Cytoperm (Pharmingen) solution. The cells were then incubated with the specific anti-Air rabbit polyclonal or a control rabbit antibody, followed by washing with Perm/Wash (Pharmingen) and a second incubation with fluorescein isothiocyanate (FITC)-conjugated goat anti-rabbit antibody. Then the cells were analysed with a FACScan (Becton Dickinson) flow cytometer. A panel: unstimulated cells. B panel: DEM-stimulated cells. Protein expression is detected in the 33.8% of the cells in basal conditions and in the 47.6% of the cells incubated with DEM.
FIG. 8—Intracellular expression of Air protein in cells from a patient affected by B-CLL. 2×10^6/ml cells obtained from patient's peripheral blood by centrifugation through Ficoll-Hypaque were incubated 24 h at 37° C. in a 5% CO2 atmosphere in the absence or presence of 2 mM DEM or 20 microM 2-Methoxymethylestradiol (2-ME), fixed and permeabilised with 250 microl of Cytofix/Cytoperm (Pharmingen) solution. The cells were then incubated with the specific anti-Air rabbit polyclonal or a control rabbit antibody, followed by washing with Perm/Wash (Pharmingen) and a second incubation with fluoresceinisothiocyanate (FITC)-conjugated goat anti-rabbit antibody. Then the cells were analysed with a FACScan (Becton Dickinson) flow cytometer. A panel: unstimulated cells. B panel: DEM-stimulated cells. C panel: cells stimulated with the drug 2-Methoxymethylestradiol (2-ME). Protein expression is detected in the 17.3% of the cells in basal conditions, in the 55.5% of DEM-stimulated cells and in the 53.1% of 2-ME-stimulated cells.
FIG. 9—Intracellular expression of Air protein in a patient affected by B-CLL. […] Then the cells were analysed with a FACScan (Becton Dickinson) flow cytometer. […] Protein expression is detected in the 27.2% of the cells in basal conditions, in the 28.3% of DEM-stimulated cells and in the 23.1% of 2-ME-stimulated cells.

Data set [1] has as its system SH-SY5Y neuroblastoma cells. Put plainly: Apoptosis of SH-SY5Y neuroblastoma cells induced by DEM, propidium iodide flow cytometry. The format is cell-based, human. Conditions: 2 or 6 mM DEM, oligonucleotides 7 microM, 12 or 16 h (FIGS. 3-6).

Consider `COCc1cc2c(cc1O)CC[C@@H]1[C@@H]2CC[C@]2(C)[C@@H](O)CC[C@@H]12` [2-ME, 2-Methoxymethylestradiol], for which the “cells in which Air protein expression is detected” value was determined as 53.1% in the data set with Air protein (B-CLL patient of FIG. 8, 20 microM 2-ME, 24 h (basal 17.3%)) and 23.1% in the data set on Air protein (B-CLL patient of FIG. 9, 20 microM 2-ME, 24 h (basal 27.2%)). For `CCOC(=O)/C=C\C(=O)OCC` [DEM, diethylmaleate], the “cells in which Air protein expression is detected” value in the data set with Air protein (B-CLL patient of FIG. 7, 2 mM DEM, 24 h (basal 33.8%)) worked out at 47.6%; in the data set with Air protein (B-CLL patient of FIG. 8, 2 mM DEM, 24 h (basal 17.3%)) it was 55.5%; in the data set with Air protein (B-CLL patient of FIG. 9, 2 mM DEM, 24 h (basal 27.2%)), 28.3%. On to “SEQ ID NO 6: antisense phosphorothioate oligonucleotide directed at blocking Air synthesis (CTTAGTCTTATACATTTTTTTAAAATC; all phosphorothioate, sugars by position and methylation of C not given here)”, for which, in data set [1], the modulation of apoptosis entry is reported as “blocking it”. For the molecule “SEQ ID NO 7: antisense phosphorothioate oligonucleotide directed at blocking Air synthesis (ATCTTAGTCTTATACATTTTTTTAAA; all phosphorothioate, sugars by position and methylation of C not given here)”, the modulation of apoptosis entry in data set [1] is “blocking it”. Consider “SEQ ID NO 8: antisense phosphorothioate oligonucleotide directed at blocking Air synthesis (CTTTCTATCTTCATTTTATTTTTCC; all phosphorothioate, sugars by position and methylation of C not given here)”, for which, in data set [1], the modulation of apoptosis result was “blocking it”.
